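In this assay, cells in 96-well plates receive the compound at five concentrations for 48 hours. Endpoints are linearly interpolated between the surrounding concentrations. Here, GI50 denotes the concentration required for 50% inhibition of growth. TGI marks complete inhibition of growth.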
Experiments:
Assay in all cases: NCI anticancer screen, dose series, 48 h
[1] = test system: UO-31 renal
[2] = test system: T-47D breast
[3] = test system: NCI-H23 lung
[4] = test system: SK-MEL-28 melanoma
[5] = test system: LOX IMVI melanoma
[6] = test system: NCI/ADR-RES ovarian
[7] = test system: CCRF-CEM leukemia
[8] = test system: SNB-75 CNS
[9] = test system: ACHN renal
[10] = test system: HCT-116 colon
[11] = test system: K-562 leukemia
[12] = test system: HL-60(TB) leukemia
[13] = test system: MOLT-4 leukemia
[14] = test system: 786-0 renal
[15] = test system: UACC-62 melanoma
[16] = test system: TK-10 renal
[17] = test system: HCT-15 colon
[18] = test system: SF-295 CNS
[19] = test system: DU-145 prostate
[20] = test system: U251 CNS
[21] = test system: SF-268 CNS
[22] = test system: M14 melanoma
[23] = test system: A549 NSCLC
[24] = test system: SNB-19 CNS
[25] = test system: MALME-3M melanoma
[26] = test system: SK-OV-3 ovarian
[27] = test system: EKVX NSCLC
[28] = test system: OVCAR-4 ovarian
[29] = test system: KM12 colon
[30] = test system: SK-MEL-5 melanoma
[31] = test system: RXF 393 renal
[32] = test system: IGROV1 ovarian
[33] = test system: SW-620 colon
[34] = test system: SF-539 CNS
[35] = test system: NCI-H522 lung
[36] = test system: HS 578T breast
[37] = test system: MDA-MB-435
[38] = test system: MCF7 breast
[39] = test system: SR leukemia
[40] = test system: HOP-62 NSCLC
[41] = test system: MDA-MB-231 breast
[42] = test system: SN12C renal
[43] = test system: BT-549 breast
[44] = test system: NCI-H460 lung
[45] = test system: HOP-92 NSCLC
[46] = test system: HT29 colon
[47] = test system: UACC-257 melanoma
[48] = test system: CAKI-1 renal
[49] = test system: OVCAR-5 ovarian
[50] = test system: NCI-H226 lung
[51] = test system: A498 renal
[52] = test system: COLO 205 colon
[53] = test system: HCC-2998 colon
[54] = test system: OVCAR-8 ovarian
[55] = test system: PC-3 prostate

**Q.** What does the source list for C#C[C@]1(O)CC[C@H]2[C@@H]3CC=C4c5sc(Nc6cccc(C)n6)nc5CC[C@]4(C)[C@H]3CC[C@@]21C?
**A.** GI50 [1]: 1.14 µM; TGI [1]: 2.56 µM; GI50 [2]: 1.98 µM; TGI [2]: 6.64 µM; GI50 [3]: 1.57 µM; TGI [3]: 6.03 µM; GI50 [4]: 0.543 µM; TGI [4]: 2.28 µM; GI50 [5]: 1.39 µM; TGI [5]: 2.79 µM; GI50 [6]: 1.82 µM; TGI [6]: 7.41 µM; GI50 [7]: 1.36 µM; TGI [7]: 6.35 µM; GI50 [8]: 1.09 µM; TGI [8]: 8.32 µM; GI50 [9]: 1.2 µM; TGI [9]: 3.55 µM; GI50 [10]: 1.35 µM; TGI [10]: 3.04 µM; GI50 [11]: 0.666 µM; TGI [11]: 3.1 µM; GI50 [12]: 0.71 µM; TGI [12]: 3.46 µM; GI50 [13]: 0.552 µM; TGI [13]: 3.05 µM; GI50 [14]: 0.437 µM; TGI [14]: 1.96 µM; GI50 [15]: 1.49 µM; TGI [15]: 3.3 µM; GI50 [16]: 2.46 µM; TGI [16]: 7.67 µM; GI50 [17]: 1.13 µM; TGI [17]: 2.71 µM; GI50 [18]: 0.329 µM; TGI [18]: 1.36 µM; GI50 [19]: 2.8 µM; TGI [19]: 12 µM; GI50 [20]: 0.558 µM; TGI [20]: 1.93 µM; GI50 [21]: 2.02 µM; TGI [21]: 7.37 µM; GI50 [22]: 1.52 µM; TGI [22]: 3.57 µM; GI50 [23]: 1.89 µM; TGI [23]: 8.31 µM; GI50 [24]: 1.2 µM; TGI [24]: 3.82 µM; GI50 [25]: 1.4 µM; TGI [25]: 3.36 µM; GI50 [26]: 1.37 µM; TGI [26]: 3.25 µM; GI50 [27]: 1.39 µM; TGI [27]: 10.1 µM; GI50 [28]: 3.02 µM; TGI [28]: 16.8 µM; GI50 [29]: 1.85 µM; TGI [29]: 5.99 µM; GI50 [30]: 1.84 µM; TGI [30]: 3.7 µM; GI50 [31]: 0.23 µM; TGI [31]: 0.579 µM; GI50 [32]: 2.74 µM; TGI [32]: 11.5 µM; GI50 [33]: 1.56 µM; TGI [33]: 3.09 µM; GI50 [34]: 0.28 µM; TGI [34]: 1.17 µM; GI50 [35]: 1.66 µM; TGI [35]: 3.26 µM; GI50 [36]: 0.343 µM; TGI [36]: 2.02 µM; GI50 [37]: 2.24 µM; TGI [37]: 6.44 µM; GI50 [38]: 1.24 µM; TGI [38]: 3.52 µM; GI50 [39]: 0.403 µM; TGI [39]: 2.09 µM; GI50 [40]: 1.33 µM; TGI [40]: 2.93 µM; GI50 [41]: 1.24 µM; TGI [41]: 3.38 µM; GI50 [42]: 1.62 µM; TGI [42]: 3.2 µM; GI50 [43]: 1.49 µM; TGI [43]: 3.31 µM; GI50 [44]: 1.46 µM; TGI [44]: 3.04 µM; GI50 [45]: 1.59 µM; TGI [45]: 4.15 µM; GI50 [46]: 1.5 µM; TGI [46]: 3.17 µM; GI50 [47]: 1.62 µM; TGI [47]: 3.46 µM; GI50 [48]: 1.53 µM; TGI [48]: 4.34 µM; GI50 [49]: 1.7 µM; TGI [49]: 3.78 µM; GI50 [50]: 2.69 µM; TGI [50]: 12.1 µM; GI50 [51]: 1.28 µM; TGI [51]: 2.62 µM; GI50 [52]: 1.76 µM; TGI [52]: 3.38 µM; GI50 [53]: 2.19 µM; TGI [53]: 5.52 µM; GI50 [54]: 1.45 µM; TGI [54]: 4.78 µM; GI50 [55]: 0.979 µM; TGI [55]: 5.54 µM

From PubChem BioAssay (NCI)
